Reference: patent publication US7166303B2, “Anesthetic formulations” (Maelor Pharmaceuticals Limited, priority 2000, dated 2007)
Values after ≈ are worked out from the molar mass of the structure shown.

Legend:
physchem = conditions: water, thermodynamic from solid
Method: Analyses were performed using the Perkin Elmer Lambda 5 UV/Vis Spectrophotometer.
Two sets of standards were prepared by serial dilution of: • 1. 10% poloxamer P407/1% Propofol solution in water. • 2. 1% Propofol solution in ethanol (EtOH).
Dilutions were performed with water and EtOH respectively. The standards were further diluted one hundred fold prior to measurement of their UV absorption spectra recorded.

[1] = 84% water/16% propylene glycol, ambient temperature

In the case of `CC(C)c1cccc(C(C)C)c1O` [Propofol, 2,6-bis(1-methylethyl)phenol], the solubility thermodynamic (physchem) is reported as about 1000 µM (≈ 178 µg/mL) and the “increase of solubility of Propofol over water alone” value [1] is reported as “approximately 50%”.
